Patent publication US9057727B2, “Screening methods using G-protein coupled receptors and related compositions” (The General Hospital Corporation, priority 2007, dated 2015)
Ends that are not written are not given here.

Legend:
[1] = system: MC3T3-E1 cells; assay: cAMP in MC3T3-E1 cells, dose-response; type: cell-based; settings: Table 3; read-out: dose-response cAMP in MC3T3-E1 (EC50)
Experimental: In the 1-30 scaffold, Gly, Ser, Leu, Asn, Gln, Trp, Glu, and Lys were substituted at position 29; Gly, Ser, Leu, Asn, Asp, Trp, and Lys were substituted at position 30; and Ser, Leu, Asn, Val, Trp, Glu, and Lys were substituted at position 31. […] These peptides were tested for cAMP activity in MC3T3-E1 cells.

[2] = system: MC3T3-E1 cells; assay: cAMP screen of EALK-PTHrP(1-31)/(1-34) variants (% parent); type: cell-based
Excerpt: FIGS. 32A and 32B are graphs showing the effects of amino acid substitutions in the 29-31 region of EALK-PTHrP(1-31) (SEQ ID NO:94) (FIG. 32A) and the 29-33 region of EALK-PTHrP(1-34) (SEQ ID NO:112) (FIG. 32B) on induction of cAMP activity in MC3T3-E1 cells. Substitutions at position 29 for EALK-PTHrP(1-31) were G^29 to S^29 (SEQ ID NO:95-96), L^29 (SEQ ID NO:176), and N^29 to K^29 (SEQ ID NO:97-101). Substitutions at position 30 for EALK-PTHrP(1-31) were G^30 to D^30 (SEQ ID NO:102-106), W^30 (SEQ ID NO:177), and K^30 (SEQ ID NO:107). […] Substitutions for EALK-PTHrP(1-34) A^30 to A^33 (SEQ ID NO:113-116) and EALK-PTHrP(1-28)/PTH(29-34) (SEQ ID NO:117).
To optimize the activity of the EALK-PTHrP peptides, we generated EALK-PTHrP([…]) and PTHrP(1-34) variants with substitutions in the 29-33 region. In the 1-30 scaffold, Gly, Ser, Leu, Asn, Gln, Trp, Glu, and Lys were substituted at position 29; Gly, Ser, Leu, Asn, Asp, Trp, and Lys were substituted at position 30; and Ser, Leu, Asn, Val, Trp, Glu, and Lys were substituted at position 31. […] A predicted advantage of these longer-length peptides, relative to the PTHrP(1-30) scaffold, is that they will have longer a longer half-life in circulation due to slower clearance. The C-terminal substitutions were thus designed to provide the added chain length, but to avoid increasing R^0 binding affinity, which occurs when the native PTHrP(29-34) region (SEQ ID NO:186) is installed. These peptides were tested for cAMP activity in MC3T3-E1 cells.

[3] = parent E18,A22,L25,K26-PTHrP(1-34)OH
[4] = parent E18,A22,L25,K26-PTHrP(1-31)OH

| EC50 [1] [nM] | Substance | screen cAMP (% parent) [2, 4] [% parent] | further results |
| --- | --- | --- | --- |
| 0.058 | AVSEHQLLHDKGKSIQDARRRAFLHKLIAE [A18, 22, K26-PTHrP(1-30)NH, A18,22,K26-PTHrP(1-30)] | – | – |
| 0.06 | AVSEHQLLHDKGKSIQDARRRAFLHKLIAEI [A18, 22, K26-PTHrP(1-31)NH, A18,22,K26-PTHrP(1-31)] | – | – |
| 0.2 | AVSEHQLLHDKGKSIQDARRRAFLLKLIAEI [A18, 22, L25, K26-PTHrP(1-31)NH, A18,22,L25,K26-PTHrP(1-31)] | – | – |
| 0.082 | AVSEHQLLHDKGKSIQDERRRAFLHHKIAE [E18, A22, K27-PTHrP(1-30)NH, E18,A22,K27-PTHrP(1-30)] | – | – |
| 0.112 | AVSEHQLLHDKGKSIQDERRRAFLLKLIAEI [E18, A22, L25, K26-PTHrP(1-31)NH, E18,A22,L25,K26-PTHrP(1-31)] | – | – |
| – | E18,A22,L25,K26,A32-PTHrP(1-34) (AVSEHQLLHDKGKSIQDERRRAFLLKLIAEIATA-OH) [E18, A22, L25, K26, A32-PTHrP(1-34)OH] | – | screen cAMP (% parent) [2, 3]: 197 % parent |
| – | E18,A22,L25,K26,A33-PTHrP(1-34) (AVSEHQLLHDKGKSIQDERRRAFLLKLIAEIHAA-OH) [E18, A22, L25, K26, A33-PTHrP(1-34)OH] | – | screen cAMP (% parent) [2, 3]: 196 % parent |
| – | E18,A22,L25,K26,E29-PTHrP(1-31) (AVSEHQLLHDKGKSIQDERRRAFLLKLIEEI-OH) [E18, A22, L25, K26, E29-PTHrP(1-31)OH] | 100 | – |
| – | E18,A22,L25,K26,G29-PTHrP(1-31) (AVSEHQLLHDKGKSIQDERRRAFLLKLIGEI-OH) [E18, A22, L25, K26, G29-PTHrP(1-31)OH] | 206 | – |
| – | E18,A22,L25,K26,G30-PTHrP(1-31) (AVSEHQLLHDKGKSIQDERRRAFLLKLIAGI-OH) [E18, A22, L25, K26, G30-PTHrP(1-31)OH] | 286 | – |
| – | E18,A22,L25,K26,K31-PTHrP(1-31) (AVSEHQLLHDKGKSIQDERRRAFLLKLIAEK-OH) [E18, A22, L25, K26, K31-PTHrP(1-31)OH] | 134 | – |
